We go through 13 compounds from patent US20200223889A1, “Bicyclic Compounds Capable of Binding to Melanocortin 4 Receptor” (Novo Nordisk A/S, priority 2017, published 2020).

For one test, the target named is T1, human MC1R (Homo sapiens, UniProt Q01726).
T1 construct: expressed in transfected cells
Description: Functional cAMP assay (CisBio HTRF) in BHK cells expressing human MC1R. The format is cell-based. The protocol:
In order to assess the potency of the compounds on human MC1R and human MC4R cAMP signalling was measured.
cAMP induction was measured by c-AMPdynamic2 assay, HTRF 62AM4PEC system from CisBio for the human MC1R and human MC4R according to the protocol provided by the vendor. BHK cells expressing the human MC1 or MC4 receptor were generated by stable transfection with expression vectors encoding the cDNA of either MC1R or MC4R.
In details; 25 μl compound—or standard solution were added in the respective wells. Compound was reconstituted in buffer (DMEM w/o phenol red, 10 mM
Hepes, lx Glutamine, 0.1% OV-albumin1, 1 mM IBMX) and serially diluted starting at 2 μM, 10-fold seven times. Dilutions were carried out in the same aforementioned buffer to the desired working concentration ranges (2× higher than the final concentration). 25 μl cell solution was then added and allowed to incubate for 30 min while lightly shaking, at 25° C. […] The provided components for the assay were reconstituted according to the CisBio assay protocol “3.1 supplied reagents and preparation procedure” in MilliQ purification system H2O and diluted 1:20 in lysis buffer. 25 μl cAMP-d2 and 25 μl Cryptate conjugate were added to all wells.
Plates were centrifuged at 1500 rpm for 30 sec and incubated for 1 h, lightly shaking, at 25° C. in a hotel stacker. The plates were read on Mithras LB 940 provided by Berthold Technologies The data were analysed by non-linear regression analysis of binding curves, using the Windows™ program GraphPad™ Prism (GraphPad Software, USA).
The latter is used when no full curve can be obtained in the concentration ranges indicated above.
A general note: Cyclic AMP is a second messenger, typically raised through Gs and lowered through Gi signalling.

The target of another test is T2, human MC4R (Homo sapiens, UniProt P32245).
T2 construct: expressed in transfected cells
T2 sequence (P32245 whole entry): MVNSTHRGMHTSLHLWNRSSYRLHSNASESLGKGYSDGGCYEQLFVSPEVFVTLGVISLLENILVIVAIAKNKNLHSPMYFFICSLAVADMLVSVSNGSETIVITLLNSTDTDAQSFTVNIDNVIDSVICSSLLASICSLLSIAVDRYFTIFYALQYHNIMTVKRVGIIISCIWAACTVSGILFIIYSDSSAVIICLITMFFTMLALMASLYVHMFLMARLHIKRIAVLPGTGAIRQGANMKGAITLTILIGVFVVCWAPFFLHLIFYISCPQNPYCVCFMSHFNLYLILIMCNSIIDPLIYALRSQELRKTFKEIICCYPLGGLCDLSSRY
Description: Functional cAMP assay (CisBio HTRF) in BHK cells expressing human MC4R. It is filed as cell-based. The settings on record: for MC1R/MC4R cAMP EC50 ratio: MC1R cAMP EC50 divided by MC4R cAMP EC50. The procedure, abridged:
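Compound working solutions, 10-fold dilutions from 2 μM at twice final strength, in buffer containing 1 mM IBMX, were incubated 30 min at 25 °C with BHK cells stably carrying human MC4R or MC1R. Accumulated cAMP was then detected by competitive HTRF after 1 h at 25 °C and fitted by non-linear regression.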

Setting [1] is: BHK cells expressing human MC1R, '>' = highest dose used with no response, read-out: MC1R cAMP EC50.
The mark [2] stands for this setting: BHK cells expressing human MC4R, '>' = highest dose used with no response, read-out: MC4R cAMP EC50.

Where two headings read alike, the source gives them in different places. Starred links: 1 amine or outer side, 2 acyl side, 3 side chain; linkers in the order of their positions; H or OH if unused. Positions of bridges follow the written chain, without caps; N, C: chain ends. Non-standard residues stand in square brackets, D forms with d. Residues, ends and D or L forms follow the SMILES beside them. Lys(CH2CO2H)2 = N[C@@H](CCCCN(CC(=O)O)CC(=O)O)C(=O)O; Phe(3,4-(OMe)2) = COc1ccc(C[C@H](N)C(=O)O)cc1OC; Hyp = O=C(O)[C@@H]1C[C@@H](O)CN1; Cit = NC(=O)NCCC[C@H](N)C(=O)O; Thz = O=C(O)[C@@H]1CSCN1; CH2 = C([*:1])[*:2] Where only a bound is given, the exact number is not on record here.

T1 sequence (Q01726 whole entry): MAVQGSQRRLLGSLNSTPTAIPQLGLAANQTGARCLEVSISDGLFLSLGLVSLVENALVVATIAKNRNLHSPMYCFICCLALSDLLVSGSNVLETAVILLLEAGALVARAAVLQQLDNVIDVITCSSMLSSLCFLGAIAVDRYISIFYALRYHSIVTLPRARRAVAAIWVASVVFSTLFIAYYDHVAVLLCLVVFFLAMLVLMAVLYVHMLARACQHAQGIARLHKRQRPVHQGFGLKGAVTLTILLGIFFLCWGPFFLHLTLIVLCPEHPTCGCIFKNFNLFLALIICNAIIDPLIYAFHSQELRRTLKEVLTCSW

For orientation: EC50 means the concentration giving half of the maximal effect. As to `C[C@@H]1NC(=O)[C@H](CCC(=O)O)NC(=O)[C@H](CC(=O)O)NC(=O)[C@H](C)NC(=O)[C@@H]2CSSC[C@H](NC(=O)[C@H](Cc3c[nH]c4ccccc34)NC1=O)C(=O)N1CSC[C@H]1C(=O)N[C@@H](Cc1c[nH]cn1)C(=O)N[C@H](Cc1ccccc1)C(=O)N[C@@H](Cc1c[nH]cn1)C(=O)N[C@@H](Cc1c[nH]c3ccccc13)C(=O)N2` [Chem. 107, c[c[Cys-THAZ-His-D-Phe-His-Trp- Cys]-Ala-Asp-Glu-Ala-Trp]] (cyclo(ADEAWC[Thz]H[dF]HWC); disulfide 6-12), the concentration for a half-maximal effect (EC50) at human MC1R is more than 100 nM; on human MC4R it was 10.6 nM. For the same compound, the “MC1R/MC4R cAMP EC50 ratio” value at human MC4R is listed as more than 10.
In the same order, the values of `C[C@@H]1NC(=O)[C@H](CC(=O)O)NC(=O)[C@H](CC(=O)O)NC(=O)[C@H](C)NC(=O)[C@@H]2CSSC[C@H](NC(=O)[C@H](Cc3c[nH]c4ccccc34)NC1=O)C(=O)N1CSC[C@H]1C(=O)N[C@@H](Cc1c[nH]cn1)C(=O)N[C@H](Cc1ccccc1)C(=O)N[C@@H](Cc1c[nH]cn1)C(=O)N[C@@H](Cc1c[nH]c3ccccc13)C(=O)N2` [Chem. 106, c[c[Cys-THAZ-His-D-Phe-His-Trp- Cys]-Ala-Asp-Asp-Ala-Trp]] (cyclo(ADDAWC[Thz]H[dF]HWC); disulfide 6-12) are more than 100 nM, 10.6 nM and more than 10.
On to `N=C(N)NCCC[C@@H]1NC(=O)[C@@H](Cc2ccccc2)NC(=O)[C@H](Cc2c[nH]cn2)NC(=O)[C@@H]2CSSC[C@H](NC(=O)[C@H](Cc3c[nH]c4ccccc34)NC1=O)C(=O)N[C@@H](Cc1c[nH]cn1)C(=O)N[C@H](Cc1ccccc1)C(=O)N[C@@H](CCCNC(=N)N)C(=O)N[C@@H](Cc1c[nH]c3ccccc13)C(=O)N2` [Chem. 49, c[c[Cys-His-D-Phe-Arg-Trp-Cys]-His- D-Phe-Arg-Trp]] (cyclo(CH[dF]RWCH[dF]RW); disulfide 1-6), for which the half-maximal effective concentration (EC50) on human MC1R was more than 5.5 nM. Besides, the “MC1R/MC4R cAMP EC50 ratio” value on human MC4R was more than 4.
For `C[C@@H]1NC(=O)[C@@H]2CSCSC[C@H](NC(=O)[C@H](Cc3c[nH]c4ccccc34)NC(=O)[C@H](CCCNC(=N)N)NC(=O)[C@@H](Cc3ccccc3)NC(=O)[C@@H]3C[C@@H](O)CN3C1=O)C(=O)N[C@@H](C)C(=O)N1C[C@H](O)C[C@H]1C(=O)N[C@H](Cc1ccccc1)C(=O)N[C@@H](CCCNC(=N)N)C(=O)N[C@@H](Cc1c[nH]c3ccccc13)C(=O)N2` [Chem. 23, c[c[Cys-Ala-Hyp-D-Phe-Arg-Trp- Cys]-Ala-Hyp-D-Phe-Arg-Trp]] (cyclo(A[Hyp][dF]RWCA[Hyp][dF]RWC); linker 6-12 via CH2), the EC50 at human MC1R (setting [1]) is more than 10 nM. Further, the “MC1R/MC4R cAMP EC50 ratio” value on human MC4R is on record as more than 3.
`COc1ccc(C[C@@H]2NC(=O)[C@H](CCCNC(=N)N)NC(=O)[C@@H](Cc3ccccc3)NC(=O)[C@H](Cc3c[nH]cn3)NC(=O)[C@H](C)NC(=O)[C@@H]3CSSC[C@H](NC2=O)C(=O)N[C@@H](C)C(=O)N[C@@H](CCCCN)C(=O)N[C@@H](CCCCN)C(=O)N[C@@H](CCCCN)C(=O)N[C@@H](Cc2c[nH]c4ccccc24)C(=O)N3)cc1OC` [Chem. 67, c[c[Cys-Ala-His-D-Phe-Arg-3,4- DiMeo-Phe-Cys]-Ala-Lys-Lys-Lys- Trp]] (cyclo(AH[dF]R[Phe(3,4-(OMe)2)]CAKKKWC); disulfide 6-12): the EC50 at human MC1R (setting [1]) was more than 55 nM. For the same compound, the “MC1R/MC4R cAMP EC50 ratio” value on human MC4R was more than 18.
`C[C@@H]1NC(=O)[C@@H]2CSSC[C@H](NC(=O)[C@H](Cc3c[nH]c4ccccc34)NC(=O)[C@@H]3C[C@H](NC(=N)N)CN3C(=O)[C@@H](Cc3ccccc3)NC(=O)[C@H](Cc3c[nH]cn3)NC1=O)C(=O)N[C@@H](C)C(=O)N[C@@H](Cc1c[nH]cn1)C(=O)N[C@H](Cc1ccccc1)C(=O)N1C[C@@H](NC(=N)N)C[C@H]1C(=O)N[C@@H](Cc1c[nH]c3ccccc13)C(=O)N2` [Chem. 29, c[c[Cys-Ala-His-D-Phe-4cis-GuaPro- Trp-Cys]-Ala-His-D-Phe-4cis-GuaPro- Trp]]: the EC50 at human MC1R (setting [1]) is more than 100 nM.
For `C[C@@H]1NC(=O)[C@@H]2CSSC[C@H](NC(=O)[C@H](Cc3c[nH]c4ccccc34)NC(=O)[C@H](CCCNC(N)=O)NC(=O)[C@@H](Cc3ccccc3)NC(=O)[C@H](Cc3c[nH]cn3)NC1=O)C(=O)N[C@@H](C)C(=O)N[C@@H](CCC(=O)O)C(=O)N[C@@H](CCC(=O)O)C(=O)N[C@@H](CCC(=O)O)C(=O)N[C@@H](Cc1c[nH]c3ccccc13)C(=O)N2` [Chem. 45, c[c[Cys-Ala-His-D-Phe-Cit-Trp-Cys]- Ala-Glu-Glu-Glu-Trp]] (cyclo(AEEEWCAH[dF][Cit]WC); disulfide 6-12), on human MC1R (setting [1]), the concentration for a half-maximal effect (EC50) was more than 100 nM. The “MC1R/MC4R cAMP EC50 ratio” value at human MC4R is reported as more than 2.
Consider `C[C@@H]1NC(=O)[C@H](C)NC(=O)[C@@H]2CSSC[C@H](NC(=O)[C@H](Cc3c[nH]c4ccccc34)NC(=O)[C@H](C)NC(=O)[C@H](CCCCN(CC(=O)O)CC(=O)O)NC1=O)C(=O)N1CSC[C@H]1C(=O)N[C@@H](Cc1c[nH]cn1)C(=O)N[C@H](Cc1ccccc1)C(=O)N[C@@H](Cc1c[nH]cn1)C(=O)N[C@@H](Cc1c[nH]c3ccccc13)C(=O)N2` [Chem. 104, c[c[Cys-THAZ-His-D-Phe-His-Trp- Cys]-Ala-Ala-Lys(CH2COOH)2-Ala- Trp]] (cyclo(AA[Lys(CH2CO2H)2]AWC[Thz]H[dF]HWC); disulfide 6-12), for which the EC50 at human MC1R was more than 100 nM. Moreover, on human MC4R, the EC50 stood at 0.6 nM and the “MC1R/MC4R cAMP EC50 ratio” value stood at 167.
Compound `C[C@@H]1NC(=O)[C@H](CC(=O)O)NC(=O)[C@H](CCC(=O)O)NC(=O)[C@H](C)NC(=O)[C@@H]2CSSC[C@H](NC(=O)[C@H](Cc3c[nH]c4ccccc34)NC1=O)C(=O)N1CSC[C@H]1C(=O)N[C@@H](Cc1c[nH]cn1)C(=O)N[C@H](Cc1ccccc1)C(=O)N[C@@H](Cc1c[nH]cn1)C(=O)N[C@@H](Cc1c[nH]c3ccccc13)C(=O)N2` [Chem. 108, c[c[Cys-THAZ-His-D-Phe-His-Trp- Cys]-Ala-Glu-Asp-Ala-Trp]] (cyclo(AEDAWC[Thz]H[dF]HWC); disulfide 6-12) yielded an EC50 at human MC1R of more than 100 nM. The “MC1R/MC4R cAMP EC50 ratio” value on human MC4R was more than 40.
For `O=C(O)CC[C@@H]1NC(=O)[C@@H]2CSSC[C@H](NC(=O)[C@H](Cc3c[nH]c4ccccc34)NC(=O)[C@H](Cc3c[nH]cn3)NC(=O)[C@@H](Cc3ccccc3)NC(=O)[C@H](Cc3c[nH]cn3)NC1=O)C(=O)N[C@@H](CCC(=O)O)C(=O)N[C@@H](Cc1c[nH]cn1)C(=O)N[C@H](Cc1ccccc1)C(=O)N[C@@H](Cc1c[nH]cn1)C(=O)N[C@@H](Cc1c[nH]c3ccccc13)C(=O)N2` [Chem. 53, c[c[Cys-Glu-His-D-Phe-His-Trp-Cys]- Glu-His-D-Phe-His-Trp]] (cyclo(CEH[dF]HWCEH[dF]HW); disulfide 1-7), at human MC1R (setting [1]), the EC50 is more than 10 nM. At human MC4R, the “MC1R/MC4R cAMP EC50 ratio” value is reported as more than 1.
Take `C[C@@H]1NC(=O)[C@@H]2CSSC[C@H](NC(=O)[C@H](Cc3c[nH]c4ccccc34)NC(=O)[C@H](CCCN)NC(=O)[C@@H](Cc3ccccc3)NC(=O)[C@H](Cc3c[nH]cn3)NC1=O)C(=O)N[C@@H](C)C(=O)N[C@@H](Cc1c[nH]cn1)C(=O)N[C@H](Cc1ccccc1)C(=O)N[C@@H](CCCN)C(=O)N[C@@H](Cc1c[nH]c3ccccc13)C(=O)N2` [Chem. 16, c[c[Cys-Ala-His-D-Phe-Orn-Trp-Cys]- Ala-His-D-Phe-Orn-Trp]]: the EC50 on human MC1R (setting [1]) was more than 1 nM; at human MC4R (setting [2]), 0.21 nM. Also, on human MC4R, the “MC1R/MC4R cAMP EC50 ratio” value is more than 5.
In the same order, the values of `C[C@@H]1NC(=O)[C@@H]2CSSC[C@H](NC(=O)[C@H](Cc3c[nH]c4ccccc34)NC(=O)[C@H](CCCNC(N)=O)NC(=O)[C@@H](Cc3ccccc3)NC(=O)[C@H](Cc3c[nH]cn3)NC1=O)C(=O)N[C@@H](C)C(=O)N[C@@H](Cc1c[nH]cn1)C(=O)N[C@H](Cc1ccccc1)C(=O)N[C@@H](CCCNC(N)=O)C(=O)N[C@@H](Cc1c[nH]c3ccccc13)C(=O)N2` [Chem. 19, c[c[Cys-Ala-His-D-Phe-Cit-Trp-Cys]- Ala-His-D-Phe-Cit-Trp]] are more than 1 nM, 0.13 nM and more than 8.
Compound `O=C1N[C@H]2CSSC[C@H](NC(=O)[C@H](Cc3c[nH]c4ccccc34)NC(=O)[C@H](Cc3c[nH]cn3)NC(=O)[C@@H](Cc3ccccc3)NC(=O)[C@H](Cc3c[nH]cn3)NC(=O)[C@@H]3CSCN3C2=O)C(=O)N2CSC[C@H]2C(=O)N[C@@H](Cc2c[nH]cn2)C(=O)N[C@H](Cc2ccccc2)C(=O)N[C@@H](Cc2c[nH]cn2)C(=O)N[C@H]1Cc1c[nH]c2ccccc12` [Chem. 91, c[c[Cys-THAZ-His-D-Phe-His-Trp- Cys]-THAZ-His-D-Phe-His-Trp]] (cyclo(C[Thz]H[dF]HWC[Thz]H[dF]HW); disulfide 1-7) registered an EC50 at human MC1R of more than 10 nM. The “MC1R/MC4R cAMP EC50 ratio” value at human MC4R is recorded as more than 14.
